Consider 5 molecules from patent US20220372430A1, “PROTISTS ENRICHED WITH LIPIDS RICH IN POLYUNSATURATED FATTY ACIDS” (BIOREA, priority 2015, published 2022).

One assay concerns Crypthecodinium cohnii. To be noted: n-dodecane (oxygen carrier) added to culture medium of Crypthecodinium cohnii; cited from earlier work.
In another assay the test system is Schizochytrium limacinum. To be noted: added exogenously to the culture medium of Schizochytrium, in particular Schizochytrium limacinum; cited from earlier work.
Assay [1] relates to Schizochytrium limacinum ATCC-MYA1381. Kind of assay: Culture of Schizochytrium limacinum in medium with a selenium-containing compound; fatty acid profile of total lipids by GC-FID. To be noted: 5 mg of selenium/L in culture medium, incubation 187 h. The class given is cell-based. As for the experimental part: A strain of Schizochytrium limacinum ATCC-MYA1381 was obtained from the ATCC bank (www.atcc.org).
The growth characteristics as well as the production of lipids by Schizochytrium limacinum were measured in the presence of different forms of selenium and compared in the absence of such additives (control referenced “Without Se” in the figures).
Pre-culture of the strain Schizochytrium limacinum ATCC-MYA1381 was carried out in standard liquid medium, the composition of which is given in Table 1. To this end, starter cultures of 50 mL were started in a 250 mL Erlen flask from a colony isolated on 633 M3 chytrid agar (www.atcc.org) and cultured at 25° C.±1° C. in heterotrophy for 48 h in this standard liquid medium. The 100 mL inoculum is then started in a 500 mL Erlen flask from these “starter” cultures at an initial concentration of 1.0×10^6 cells/m/L in the same culture conditions as the latter for 4 days. The cultures were continuously aerated by orbital stirring at 100 rpm (“revolutions per minute”).
The cultures for enrichment with selenium-containing compounds were started from the inoculum at an initial concentration of 1.0×10^6 cells/mL for a final volume of 400 mL in a 2.0 L Erlen flask at 25° C.±1° C. in heterotrophy for 187 h.
The cultures were continuously aerated by orbital stirring at 100 rpm. […]
The total concentration of biomass was monitored by measuring the dry mass (filtration on GFC filter, Whatman, then drying in an oven under vacuum, 70° C. and −0.8 bar (80 kPa), for 24 h minimum before weighing). 10^7 cells/mL were extracted in order to quantify the total lipids. […] In order to ensure complete extraction of the lipids, the tube was kept under stirring on a rocker for 6 hours in darkness, then stored at −20° C. before being analyzed by GC-FID (gas chromatography with flame ionization detection) in order to determine the quantity and the profiles of the total fatty acids extracted. […]

The subject of assay [2] is Crypthecodinium cohnii CCMP 316. Kind of assay: Culture of Crypthecodinium cohnii in medium containing selenomethionine; fatty acid profile and total lipids. The class given is cell-based. As for the experimental part: The total concentration of biomass was monitored by measuring the dry mass (filtration on GFC filter, Whatman, then drying in an oven under vacuum, 70° C. and −0.8 bar (80 kPa), for 24 h minimum before weighing). 10^7 cells/mL were extracted in order to quantify the total lipids. The method for extracting lipids is known to a person skilled in the art and is as described by the publication “Bligh E. G. & Dyer W. J., A rapid method of total lipid extraction and purification, Can. J. Biochem. Physiol 37 1959 911-917”, this method having been slightly adapted for microalga cells. Thus, for each measurement, approximately 10 mL of culture (biomass and medium), freshly sampled, was washed with demineralized water so as to remove the extracellular salts before lyophilization, then placed in a glass tube and centrifuged for 10 mins at 3600 g and at 4° C. After centrifugation, the supernatant was removed and the pellet containing the cells was lyophilized. Extraction was carried out with 6 mL of a monophasic CHCl3/MeOH (chloroform/methanol) mixture in proportions of 2/1 (V/V). In order to ensure complete extraction of the lipids, the tube was kept under stirring on a rocker for 6 hours in darkness, then stored at −20° C. before being analyzed by GC-FID (gas chromatography with flame ionization detection) in order to determine the quantity and the profiles of the total fatty acids extracted.
It was produced in the same way as in Example 1, except that the protist is Crypthecodinium cohnii instead of Schizochytrium limacinum, and that a single source of selenium was used: selenomethionine (“SeMet”).
Crypthecodinium cohnii is a protist, and more precisely a heterotrophic microalga. The strain Crypthecodinium cohnii CCMP 316 was obtained from the NCMA bank (https://ncma.bigelow.org).
The results obtained are shown in FIG. 4 which gives respectively, for Crypthecodinium cohnii after incubation for 187 h, the percentage of compound in the total lipids on the y-axis, for each of the compounds (PUFA, DHA and SFA) shown on the x-axis, in the presence of selenomethionine (reference “With SeMet”), or in the absence of a selenium-containing compound (reference “Without Se”).

On to `CCCCCCCCCCCC` [n-dodecane], for which the “production of DHA, of total lipids” value in the assay with Crypthecodinium cohnii is 51%.
Turning to `C[N+](C)(C)CC(=O)[O-]` [glycine betaine], the “fermentation yield of polyunsaturated fatty acids” value with Schizochytrium limacinum was “significantly increase”.
With `OC[C@H]1O[C@H](O[C@H]2O[C@H](CO)[C@@H](O)[C@H](O)[C@H]2O)[C@H](O)[C@@H](O)[C@@H]1O` [trehalose], in the assay on Schizochytrium limacinum, the “fermentation yield of polyunsaturated fatty acids” value was “significantly increase”.
As to `O=[Se](O)O` [selenite, sodium selenite], the “percentage of DHA in the total lipids” value in assay [1] (control without Se 41%) came to 54%. Also, the “percentage of SFA in the total lipids” value in assay [1] (control without Se 44%) was 26%. In addition, the “percentage of PUFA in the total lipids” value in assay [1] (control without Se 53%) is listed as 73%.
As for `C[Se]CC[C@H](N)C(=O)O` [selenomethionine], in assay [2] (5 mg/L of selenium in culture medium, incubation 187 h, control without Se 24%), the “percentage of DHA in the total lipids” value was found to be 34%. In addition, the “percentage of PUFA in the total lipids” value in assay [2] (5 mg/L of selenium in culture medium, incubation 187 h, control without Se 25%) came out at 35%. Also, the “percentage of SFA in the total lipids” value in assay [2] (5 mg/L of selenium in culture medium, incubation 187 h, control without Se 64%) is reported as 53.5%. In assay [2] (selenium-containing culture medium versus control medium), the “increase in total lipid content in the dry biomass relative to the control medium” value amounted to 34%.
